Here are results for 16 molecules from US20260125382A1, “COMPOUNDS FOR INHIBITING OR DEGRADING CDK2 AND/OR CDK9 AND MEDICINAL USE THEREOF” (KOREA RESEARCH INSTITUTE OF CHEMICAL TECHNOLOGY, priority 2022, published 2026).

The target of experiment [1] is T1, CDK2/cyclin A (Homo sapiens, UniProt P24941).
T1 construct: purchased Eurofins Scientific
Briefly: CDK protein inhibition, KINOMEscan (Eurofins), CDK2/cyclin A. It is filed as binding. The note with it: 1 μM.

Experiment [2] concerns the target T2, CDK9 (Homo sapiens, UniProt P50750).
T2 construct: endogenous in cells; host or cells: MDA-MB-231
As to the kind of experiment: CDK protein degradation activity (Western blotting), CDK9. The note with it: MDA-MB-231 cells, 16 hours, Western blot. It is filed as cell-based. An outline of the steps: (§1)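 CDK2 and CDK9 protein levels measured by Western blot with densitometry, using tubulin as loading reference. Cells were MDA-MB-231, exposed for 16 h to 100 nM, 1 μM or 10 μM compound or to DMSO.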
(In general: In western blotting, separated proteins are transferred to a membrane and probed.)

Experiment [3] deals with T3, CDK2 (Homo sapiens, UniProt P24941).
T3 construct: endogenous in cells; host or cells: MDA-MB-231
As to the kind of experiment: CDK protein degradation activity (Western blotting), CDK2. It is filed as cell-based. As to conditions: MDA-MB-231 cells, 16 hours, Western blot. In short, it runs like this: as §1

T2 sequence (P50750 whole entry): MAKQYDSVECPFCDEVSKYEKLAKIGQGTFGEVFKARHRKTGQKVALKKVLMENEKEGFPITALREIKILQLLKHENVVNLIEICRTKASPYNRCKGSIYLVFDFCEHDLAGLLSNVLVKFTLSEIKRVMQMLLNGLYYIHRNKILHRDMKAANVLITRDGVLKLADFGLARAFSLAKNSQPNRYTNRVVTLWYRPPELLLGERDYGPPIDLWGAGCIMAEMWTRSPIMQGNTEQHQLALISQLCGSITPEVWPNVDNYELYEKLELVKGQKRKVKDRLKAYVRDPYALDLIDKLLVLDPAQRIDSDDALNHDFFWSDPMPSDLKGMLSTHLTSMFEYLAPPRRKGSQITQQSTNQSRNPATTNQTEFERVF

For the molecule `Cc1cccc(C(=O)NC2CC(n3cnc4c(NC5CCN(C(=O)CCCCCNC(=O)COc6ccc7c(c6)C(=O)N([C@@H]6CCC(=O)NC6=O)C7=O)CC5)ncnc43)C2)n1` (some centres unmarked) [Compound 3, N-((1r,3r)-3-(6-((1-(6-(2-((2-(2,6-dioxopiperidin-3-yl)-1,3-dioxoisoindolin-5-yl)oxy)acetamido)hexanoyl)piperidin-4-yl)amino)-9H-purin-9-yl)cyclobutyl)-6-methylpicolinamide], the “CDK2/cyclin A inhibition (%) (at concentration of 1 μM)” value (“CDK2/cyclin A inhibition (%)” below) in experiment [1] came to 84%.
Still for that read-out and setting: in the case of `Cc1cccc(C(=O)NC2CC(n3cnc4c(NC5CCN(C(=O)COCCOCCNc6cccc7c6C(=O)N([C@H]6CCC(=O)NC6=O)C7=O)CC5)ncnc43)C2)n1` (some centres unmarked) [Compound 12, N-((1s,3s)-3-(6-((1-(2-(2-(2-((2-(2,6-dioxopiperidin-3-yl)-1,3-dioxoisoindolin-4-yl)amino)ethoxy)ethoxy)acetyl)piperidin-4-yl)amino)-9H-purin-9-yl)cyclobutyl)-6-methylpicolinamide] it was 86%.
On to `Cc1cccc(C(=O)NC2CC(n3cnc4c(NC5CCN(C(=O)CCCCCNC(=O)CNc6cccc7c6C(=O)N([C@@H]6CCC(=O)NC6=O)C7=O)CC5)ncnc43)C2)n1` (some centres unmarked) [Compound 1, N-((1r,3r)-3-(6-((1-(6-(2-((2-(2,6-dioxopiperidin-3-yl)-1,3-dioxoisoindolin-4-yl)amino)acetamido)hexanoyl)piperidin-4-yl)amino)-9H-purin-9-yl)cyclobutyl)-6-methylpicolinamide], for which, in experiment [1], the “CDK2/cyclin A inhibition (%)” value was found to be 77%.
Still for that read-out and setting: under `Cc1cccc(C(=O)NC2CC(n3cnc4c(NCC5CCN(C(=O)CCCCCNC(=O)CNc6cccc7c6C(=O)N([C@@H]6CCC(=O)NC6=O)C7=O)CC5)ncnc43)C2)n1` (some centres unmarked) [Compound 62, N-((1r,3r)-3-(6-(((1-(6-(2-((2-(2,6-dioxopiperidin-3-yl)-1,3-dioxoisoindolin-4-yl)amino)acetamido)hexanoyl)piperidin-4-yl)methyl)amino)-9H-purin-9-yl)cyclobutyl)-6-methylpicolinamide] stands 89%; under `Cc1cccc(C(=O)NC2CC(n3cnc4c(NC5CCN(C(=O)COCCOCCNC(=O)COc6cccc7c6C(=O)N([C@H]6CCC(=O)NC6=O)C7=O)CC5)ncnc43)C2)n1` (some centres unmarked) [Compound 8, N-((1s,3s)-3-(6-((1-(2-(2-(2-(2-((2-(2,6-dioxopiperidin-3-yl)-1,3-dioxoisoindolin-4-yl)oxy)acetamido)ethoxy)ethoxy)acetyl)piperidin-4-yl)amino)-9H-purin-9-yl)cyclobutyl)-6-methylpicolinamide], 89%.
Consider `Cc1cccc(C(=O)NC2CC(n3cnc4c(NC5CCN(C(=O)COCCOCCNC(=O)CNc6cccc7c6C(=O)N([C@H]6CCC(=O)NC6=O)C7=O)CC5)ncnc43)C2)n1` (some centres unmarked) [Compound 10, N-((1s,3s)-3-(6-((1-(2-(2-(2-(2-((2-(2,6-dioxopiperidin-3-yl)-1,3-dioxoisoindolin-4-yl)amino)acetamido)ethoxy)ethoxy)acetyl)piperidin-4-yl)amino)-9H-purin-9-yl)cyclobutyl)-6-methylpicolinamide], for which the “CDK2/cyclin A inhibition (%)” value in experiment [1] amounted to 90%.
Same read-out and setting: under `Cc1cccc(C(=O)NC2CC(n3cnc4c(NC5CCN(C(=O)COCCOCCNC(=O)CNc6ccc7c(c6)C(=O)N([C@H]6CCC(=O)NC6=O)C7=O)CC5)ncnc43)C2)n1` (some centres unmarked) [Compound 9, N-((1s,3s)-3-(6-((1-(2-(2-(2-(2-((2-(2,6-dioxopiperidin-3-yl)-1,3-dioxoisoindolin-5-yl)amino)acetamido)ethoxy)ethoxy)acetyl)piperidin-4-yl)amino)-9H-purin-9-yl)cyclobutyl)-6-methylpicolinamide] stands 92%.
On the same count and under the same terms, under `Cc1cccc(C(=O)NC2CC(n3cnc4c(NC5CCN(C(=O)COCCOCCNc6ccc7c(c6)C(=O)N([C@H]6CCC(=O)NC6=O)C7=O)CC5)ncnc43)C2)n1` (some centres unmarked) [Compound 11, N-((1s,3s)-3-(6-((1-(2-(2-(2-((2-(2,6-dioxopiperidin-3-yl)-1,3-dioxoisoindolin-5-yl)amino)ethoxy)ethoxy)acetyl)piperidin-4-yl)amino)-9H-purin-9-yl)cyclobutyl)-6-methylpicolinamide] stands 78%.
On the same count and under the same terms, in the case of `Cc1cccc(C(=O)NC2CC(n3cnc4c(NC5CCN(C(=O)CCCCCNC(=O)COc6cccc7c6C(=O)N([C@@H]6CCC(=O)NC6=O)C7=O)CC5)ncnc43)C2)n1` (some centres unmarked) [Compound 4, N-((1r,3r)-3-(6-((1-(6-(2-((2-(2,6-dioxopiperidin-3-yl)-1,3-dioxoisoindolin-4-yl)oxy)acetamido)hexanoyl)piperidin-4-yl)amino)-9H-purin-9-yl)cyclobutyl)-6-methylpicolinamide] it was 84%; in that of `Cc1cccc(C(=O)NC2CC(n3cnc4c(NC5CCN(C(=O)CCCCCNc6cccc7c6C(=O)N([C@@H]6CCC(=O)NC6=O)C7=O)CC5)ncnc43)C2)n1` (some centres unmarked) [Compound 6, N-((1r,3r)-3-(6-((1-(6-((2-(2,6-dioxopiperidin-3-yl)-1,3-dioxoisoindolin-4-yl)amino)hexanoyl)piperidin-4-yl)amino)-9H-purin-9-yl)cyclobutyl)-6-methylpicolinamide], 88%; in that of `Cc1cccc(C(=O)NC2CC(n3cnc4c(NCC5CCN(C(=O)CCCCCNC(=O)COc6ccc7c(c6)C(=O)N([C@@H]6CCC(=O)NC6=O)C7=O)CC5)ncnc43)C2)n1` (some centres unmarked) [Compound 63, N-((1r,3r)-3-(6-(((1-(6-(2-((2-(2,6-dioxopiperidin-3-yl)-1,3-dioxoisoindolin-5-yl)oxy)acetamido)hexanoyl)piperidin-4-yl)methyl)amino)-9H-purin-9-yl)cyclobutyl)-6-methylpicolinamide], 83%.
Take `O=C1CC[C@@H](c2cccc(OCC(=O)N3CCC4(CC3)CC(N3CCN(c5ccc(Nc6ncnc7c6ncn7C6CC(NC(=O)Cc7ccccc7)C6)cc5)CC3)C4)c2)C(=O)N1` (some centres unmarked) [Compound 226, N-((1s,3s)-3-(6-((4-(4-(7-(2-(3-(2,6-dioxopiperidin-3-yl)phenoxy)acetyl)-7-azaspiro[3.5]nonan-2-yl)piperazin-1-yl)phenyl)amino)-9H-purin-9-yl)cyclobutyl)-2-phenylacetamide]: in experiment [2], the “Enzyme degradation CDK9 (% remaining) @ 0.1 μM” value is listed as 0/0/0%, the “Enzyme degradation CDK9 (% remaining) @ 1 μM” value was 0/0/0% and the “Enzyme degradation CDK9 (% remaining) @ 10 μM” value is 0/0/0%. Further, in experiment [3], the “Enzyme degradation CDK2 (% remaining) @ 0.1 μM” value came to 40%, the “Enzyme degradation CDK2 (% remaining) @ 1 μM” value came to 30% and the “Enzyme degradation CDK2 (% remaining) @ 10 μM” value was determined as 40%.
As to `O=C1CC[C@H](N2C(=O)c3cccc(N4CCC(CN5CCC(CNc6ncnc7c6ncn7C6CC(NC(=O)c7c(Cl)cccc7Cl)C6)CC5)CC4)c3C2=O)C(=O)N1` (some centres unmarked) [Compound 172, 2,6-dichloro-N-((1s,3s)-3-(6-(((1-((1-(2-(2,6-dioxopiperidin-3-yl)-1,3-dioxoisoindolin-4-yl)piperidin-4-yl)methyl)piperidin-4-yl)methyl)amino)-9H-purin-9-yl)cyclobutyl)benzamide], in experiment [2], the “Enzyme degradation CDK9 (% remaining) @ 0.1 μM” value is reported as 50%, the “Enzyme degradation CDK9 (% remaining) @ 1 μM” value is listed as 0% and the “Enzyme degradation CDK9 (% remaining) @ 10 μM” value is listed as 0%. Besides, in experiment [3], the “Enzyme degradation CDK2 (% remaining) @ 0.1 μM” value came out at 10%, the “Enzyme degradation CDK2 (% remaining) @ 1 μM” value stood at 20% and the “Enzyme degradation CDK2 (% remaining) @ 10 μM” value was determined as 20%.
On to `Cc1cccc(C(=O)N[C@H]2C[C@@H](n3cnc4c(NCc5cccc(N6CCN(CC7CCN(C(=O)COc8cccc9c8C(=O)N(C8CCC(=O)NC8=O)C9=O)CC7)CC6)c5)ncnc43)C2)n1` (some centres unmarked) [Compound 132, N-((1s,3s)-3-(6-((3-(4-((1-(2-((2-(2,6-dioxopiperidin-3-yl)-1,3-dioxoisoindolin-4-yl)oxy)acetyl)piperidin-4-yl)methyl)piperazin-1-yl)benzyl)amino)-9H-purin-9-yl)cyclobutyl)-6-methylpicolinamide], for which, in experiment [2], the “Enzyme degradation CDK9 (% remaining) @ 0.1 μM” value came to 70%, the “Enzyme degradation CDK9 (% remaining) @ 1 μM” value came to 10% and the “Enzyme degradation CDK9 (% remaining) @ 10 μM” value turned out to be 0%. Moreover, in experiment [3], the “Enzyme degradation CDK2 (% remaining) @ 0.1 μM” value was 60%, the “Enzyme degradation CDK2 (% remaining) @ 1 μM” value was found to be 40% and the “Enzyme degradation CDK2 (% remaining) @ 10 μM” value was 40%.
For `O=C1CC[C@H](N2C(=O)c3cccc(N4CCC(CN5CCC(c6ccc(Nc7ncnc8c7ncn8C7CC(NC(=O)Cc8ccccc8)C7)cc6)CC5)CC4)c3C2=O)C(=O)N1` (some centres unmarked) [Compound 291, N-((1s,3s)-3-(6-((4-(1-((1-(2-(2,6-dioxopiperidin-3-yl)-1,3-dioxoisoindolin-4-yl)piperidin-4-yl)methyl)piperidin-4-yl)phenyl)amino)-9H-purin-9-yl)cyclobutyl)-2-phenylacetamide], in experiment [2], the “Enzyme degradation CDK9 (% remaining) @ 0.1 μM” value is 20%, the “Enzyme degradation CDK9 (% remaining) @ 1 μM” value amounted to 0% and the “Enzyme degradation CDK9 (% remaining) @ 10 μM” value was determined as 0%. Also, in experiment [3], the “Enzyme degradation CDK2 (% remaining) @ 0.1 μM” value is 20/20/20%, the “Enzyme degradation CDK2 (% remaining) @ 1 μM” value is listed as 20/20/20% and the “Enzyme degradation CDK2 (% remaining) @ 10 μM” value is 20/20/20%.
Consider `O=C1CCC(N2C(=O)c3ccc(N4CCC(CN5CCC(CCNc6ncnc7c6ncn7[C@H]6C[C@@H](NC(=O)c7c(Cl)cccc7Cl)C6)CC5)CC4)cc3C2=O)C(=O)N1` (some centres unmarked) [Compound 396, 2,6-dichloro-N-((1s,3s)-3-(6-((2-(1-((1-(2-(2,6-dioxopiperidin-3-yl)-1,3-dioxoisoindolin-5-yl)piperidin-4-yl)methyl)piperidin-4-yl)ethyl)amino)-9H-purin-9-yl)cyclobutyl)benzamide], for which, in experiment [2], the “Enzyme degradation CDK9 (% remaining) @ 0.1 μM” value is on record as 20/20/20%, the “Enzyme degradation CDK9 (% remaining) @ 1 μM” value was 20/20/20% and the “Enzyme degradation CDK9 (% remaining) @ 10 μM” value is 20/20/20%. In experiment [3], the “Enzyme degradation CDK2 (% remaining) @ 0.1 μM” value is 20%, the “Enzyme degradation CDK2 (% remaining) @ 1 μM” value was 30% and the “Enzyme degradation CDK2 (% remaining) @ 10 μM” value amounted to 30%.
